20 molecules from US20040235866A1, “Lymphocytic activation inhibitor and remedial agent for autoimmune disease” (priority 2001, published 2004) can be followed below.

In data set [1] the test system is spleen lymphocytes cultured with PLP139-151. The data set can be described thus: Inhibition effect for lymphocyte activation (antigen-specific division, 3H-thymidine uptake). To be noted: female SJL/J mouse spleen lymphocytes, PLP139-151 stimulation, 5 days culture, read-out: IC 50 (inhibition of antigen-specific division of the lymphocytes). Type of data set: cell-based. The text has this: Immunizing a mounse with a partial peptide of a proteolipid protein (PLP), a central myelin protein, induces a chronic encephalomyelitis therein. Sampling lymphocytes from the spleen of the mouse and stimulating by an antigen in vitro allow the induction of antigen-specific activation and division of the lymphocyte. The effect of a drug to the reaction was examined to evaluate the inhibition effect of the drug for lymphocyte activation. Specifically, a female SJL/J mouse was immunized with an adjuvant containing a PLP partial peptide (PLP139-151) under ether anesthesia. On the day of immunization and 2 days thereafter, deactivated Bordetella pertussis (one billion/mouse) was intravenously administered. On 7th or 8th day after the immunization, the mouse was killed by ether anesthesia and then the spleen thereof was extracted to isolate spleen lymphocytes. […] The compound numbers are the same as those described in the previous list (hereinafter, the same).

Data set [2] has as its system mice. Nature of the data set: Successive 15-day administration to mice (toxicity observation). In kind it is in vivo. Conditions: 100 mg/kg and 200 mg/kg successively for 15 days. The text has this: It is thus considered that the compound represented by the general formula (I) has low toxicity.
In data set [3] the test system is experimental encephalomyelitis model (PLP peptide p139-151 immunized mouse). Nature of the data set: Effect in an experimental encephalomyelitis model. In kind it is in vivo. To be noted: female SJL/J mouse, 200 mg/kg orally from 5th day to 12th day after initial sensitization, FIG. 2. As to the method:
100 μl of a Freund's complete adjuvant (Difco, containing 0.6 mg/ml of M. tuberculosis H37Ra) containing the PLP peptide (p139-151, Toray Research Center) was subcutaneously injected to a female SJL/J mouse in the back thereof under ether anesthesia for immunization (initial sensitization). Two days after, deactivated Bordetella pertussis was intravenously injected in an amount of about one billion per mouse. Seven days after, immunization was conducted again with the antigen. Over several weeks thereafter, abnormalities in limbs, a tail, and righting reflexes were graded into scored levels and recorded. The subjective compound was orally administered in an amount of 200 mg/kg from 5th day to 12th day after the initial sensitization. In experiments, 12 mice were used for each of a control group and a drug-administered group.
Note that, the experimental encephalomyelitis model described above is a model in which a lymphocyte activated by reacting with an immunized PLP peptide causes an immunoreaction to induce encephalomyelitis, and is widely recognized as a model for evaluating a pharmacological effect of a compound having a lymphocyte activation inhibition effect (e.g., Agents and Actions, 27, 351-355 (1989); and Agents and Actions, 35, 79-84 (1992)).

Data set [4] relates to mouse collagen-induced arthritis. Nature of the data set: Effect on mouse collagen-induced arthritis. In kind it is in vivo. Conditions: DBA/1JN male mouse, FIG. 1. As to the method: A DBA/1JN male mouse (7 weeks of age) was sensitized by intracutaneously injecting in the tail part thereof with 0.1 ml of an emulsion solution obtained by mixing a 0.3% bovine-derived type II collagen solution with the same amount of a Freund's complete adjuvant. After 3 weeks after initial sensitization, a booster was conducted in a similar way to cause arthritis. The subjective compound was made into a solution (5 mg/ml) according to a general method, and the day of the booster and 3 days thereafter, the solution was intravenously administered in an amount of 10 ml/kg (50 mg/kg). In experiments, 8 mice were used for each of a control group and a drug-administered group. The condition of arthritis was evaluated macroscopically on limbs and graded into 5 score levels (0; normal, 1; flare on a finger joint, 2; slight edema on an entire leg, 3; edema on an entire leg, and 4; severe edema on an entire leg), to be shown as a total sum. […] The effect lasted even after the second administration and the inhibition effect was recognized even 36 days after the initial sensitization, i.e., 12 days after administration (FIG. 1). […]

Molecules are shown by their SMILES. Like-named read-outs stand apart in the source and are kept apart here.

As to `Nc1ccc(S(=O)(=O)Nc2cccc3c(Cl)c[nH]c23)cc1` [Compound 3, 4-Amino-N-(3-chloro-1H-indol-7-yl)benzenesulfonamide], the IC50 in data set [1] (Mus musculus, Lymphocyte) worked out at 2270 nM.

Regarding `CS(=O)(=O)Nc1ccc(S(=O)(=O)Nc2cccc3c(Cl)c[nH]c23)cc1` [Compound 4, N-(3-Chloro-1H-indol-7-yl)-4-(methanesulfonamido)-benzenesulfonamide], in data set [1] (Mus musculus, Lymphocyte), the IC50 came to 1430 nM.

As for `N#Cc1ccc(S(=O)(=O)Nc2cccc3c(Cl)c[nH]c23)cc1` [Compound 10, N-(3-Chloro-1H-indol-7-yl)-4-cyanobenzenesulfonamide], in data set [1], the IC50 was 590 nM. In data set [2], the Body weight result is reported as “dose-dependent weight increases” and the Toxicity observation entry is given as “no observation showing toxicity”. Also, in data set [3], the “Onset of abnormality (limbs, tail, righting reflexes score)” value is recorded as “delayed expression of abnormality” and the “Severity of abnormality (limbs, tail, righting reflexes score)” value was “alleviated the severity”.

With `N#Cc1c[nH]c2c(NS(=O)(=O)c3cccc(Cl)c3)cccc12` [Compound 17, 3-Chloro-N-(3-cyano-1H-indol-7-yl)benzenesulfonamide], the IC50 in data set [1] (Mus musculus, Lymphocyte) came out at 440 nM. Also, in data set [2], the Body weight entry was “dose-dependent weight increases” and the Toxicity observation entry is given as “no observation showing toxicity”. Further, in data set [3], the “Onset of abnormality (limbs, tail, righting reflexes score)” value was “delayed expression of abnormality” and the “Severity of abnormality (limbs, tail, righting reflexes score)” value is recorded as “alleviated the severity”.

For the molecule `NS(=O)(=O)c1ccc(S(=O)(=O)Nc2cccc3c(Cl)c[nH]c23)cc1` [Compound 19, N-(3-Chloro-1H-indol-7-yl)-4-sulfamoylbenzenesulfonamide], the IC50 in data set [1] (Mus musculus, Lymphocyte) came to 1830 nM. Also, the “Effect on crisis and development of arthritis (arthritis score, total sum)” value in data set [4] (50 mg/kg intravenously on the day of the booster and 3 days thereafter) was “obvious inhibition effect for the crisis and development of arthritis”. Further, the “Duration of the inhibition effect on arthritis, days after the initial sensitization” value in data set [4] (50 mg/kg intravenously, i.e. 12 days after administration) is ≥ 36 days.

As for `N#Cc1ccc(S(=O)(=O)Nc2cccc3c(Cl)c[nH]c23)cc1` [Compound 28, 4-Cyano-N-(3-chloro-1H-indol-7-yl)benzenesulfonamide], the IC50 in data set [1] was determined as 2860 nM.

As for `NC(=O)c1ccc(S(=O)(=O)Nc2cccc3c(Cl)c[nH]c23)cc1` [Compound 29, 4-Carbamoyl-N-(3-chloro-1H-indol-7-yl)benzenesulfonamide], the IC50 in data set [1] (Mus musculus, Lymphocyte) came to 2020 nM.

On to `Nc1ccncc1S(=O)(=O)Nc1cccc2c(Cl)c[nH]c12` [Compound 33, 4-Amino-N-(3-chloro-1H-indol-7-yl)-3-pyridinesulfonamide], for which, in data set [1] (Mus musculus, Lymphocyte), the IC50 is 470 nM.

In the case of `NS(=O)(=O)CCc1ccc(S(=O)(=O)Nc2cccc3c(Cl)c[nH]c23)cc1` [Compound 35, N-(3-Chloro-1H-indol-7-yl)-4-(2-sulfamoylethyl)-benzenesulfonamide], in data set [1] (Mus musculus, Lymphocyte), the IC50 amounted to 670 nM.

For the molecule `CS(=O)(=O)CCc1ccc(S(=O)(=O)Nc2cccc3c(Cl)c[nH]c23)cc1` [Compound 36, N-(3-Chloro-1H-indol-7-yl)-4-[2-(methylsulfonyl)ethyl]-benzenesulfonamide], the IC50 in data set [1] (Mus musculus, Lymphocyte) was determined as 780 nM.

Regarding `N#Cc1c[nH]c2c(NS(=O)(=O)c3ccc(N)nc3)cccc12` [Compound 37, 6-Amino-N-(3-cyano-1H-indol-7-yl)-3-pyridinesulfonamide], the IC50 in data set [1] (Mus musculus, Lymphocyte) stood at 640 nM.

`N#Cc1cccc(S(=O)(=O)Nc2cccc3c(C#N)c[nH]c23)c1` [Compound 51, 3-Cyano-N-(3-cyano-1H-indol-7-yl)benzenesulfonamide]: the IC50 in data set [1] (Mus musculus, Lymphocyte) came out at 620 nM. For the same molecule, in data set [2], the Body weight result was “dose-dependent weight increases” and the Toxicity observation entry was “no observation showing toxicity”.

For the molecule `CS(=O)(=O)NCc1ccc(S(=O)(=O)Nc2cccc3c(Cl)c[nH]c23)cc1` [Compound 53, N-(3-Chloro-1H-indol-7-yl)-4-[(methanesulfonamido)methyl]-benzenesulfonamide], in data set [1] (Mus musculus, Lymphocyte), the IC50 was determined as 740 nM.

As to `CS(=O)(=O)NCCc1ccc(S(=O)(=O)Nc2cccc3c(Cl)c[nH]c23)cc1` [Compound 62, N-(3-Chloro-1H-indol-7-yl)-4-[2-(methanesulfonamido)ethyl]-benzensulfonamide], the IC50 in data set [1] (Mus musculus, Lymphocyte) was determined as 580 nM.

For `CCNS(=O)(=O)c1ccc(S(=O)(=O)Nc2cccc3c(Cl)c[nH]c23)cc1` [Compound 69, N-(3-Chloro-1H-indol-7-yl)-4-(N-ethylsulfamoyl)-benzenesulfonamide], the IC50 in data set [1] (Mus musculus, Lymphocyte) turned out to be 590 nM.

For `CCS(=O)(=O)Nc1ccc(S(=O)(=O)Nc2cccc3c(Cl)c[nH]c23)cc1` [Compound 70, N-(3-Chloro-1H-indol-7-yl)-4-(ethanesulfonamido)-benzenesulfonamide], the IC50 in data set [1] (Mus musculus, Lymphocyte) was 1400 nM.

Turning to `CNC(=O)c1ccc(S(=O)(=O)Nc2cccc3c(Cl)c[nH]c23)cc1` [Compound 72, N-(3-Chloro-1H-indol-7-yl)-4-(N-methylcarbamoyl)-benzenesulfonamide], the IC50 in data set [1] (Mus musculus, Lymphocyte) stood at 1810 nM.

`NS(=O)(=O)Cc1ccc(S(=O)(=O)Nc2ccc(Cl)c3c(Cl)c[nH]c23)cc1` [Compound 77, N-(3,4-Dichloro-1H-indol-7-yl)-4-(sulfamoylmethyl)-benzenesulfonamide]: the IC50 in data set [1] (Mus musculus, Lymphocyte) is 980 nM.

For the molecule `CC(=O)N(C)c1ccc(S(=O)(=O)Nc2cccc3c(Cl)c[nH]c23)cc1` [Compound 79, N-(3-Chloro-1H-indol-7-yl)-4-(N-methylacetamido)-benzenesulfonamide], the IC50 in data set [1] (Mus musculus, Lymphocyte) came to 360 nM.

`Cc1ccc(NS(=O)(=O)c2cccc(C#N)c2)c2[nH]cc(C#N)c12` [Compound 94, 3-Cyano-N-(3-cyano-4-methyl-1H-indol-7-yl)-benzenesulfonamide]: the IC50 in data set [1] (Mus musculus, Lymphocyte) came out at 250 nM. Besides, in data set [2], the Body weight entry is given as “dose-dependent weight increases” and the Toxicity observation result was “no observation showing toxicity”.
